Experimental data published in US9884832B2 (priority 2011, dated 2018).
Like-named read-outs stand apart in the source and are kept apart here.

How the values were obtained:
[1] = target: AM2 S31N (serine→asparagine mutation at residue 31 in the M2 protein) (Influenza A virus, UniProt P0DOF5, S31N); format: cell-based, influenza virus A/Udorn/72
[2] = target: AM2 V27A (valine→alanine mutation at residue 27 in the M2 protein) (Influenza A virus, UniProt P0DOF5, V27A); format: cell-based, influenza virus A/Udorn/72

SMILES	S31N OOcyte Inhibition at 100 uM (%) [1]	V27A OOcyte Inhibition at 100 uM (%) [2]	S31N OOcyte Inhibition at 100 uM (%) ([1]; pH 5.5)	V27A OOcyte Inhibition at 100 uM (%) ([2]; pH 5.5)
c1csc(-c2csc(CNC34CC5CC(CC(C5)C3)C4)c2)c1 [Example 140a, Adamantan-1-yl-[2,3′]bithiophenyl-5′-ylmethyl-amine]	A (key: (A)=31-95%; (B)=0-30%)	A (key: (A)=31-95%; (B)=0-30%)		
CSc1ccc(-c2ccc(CNC34CC5CC(CC(C5)C3)C4)s2)cc1 [Example 112a, N-((5-(4-(methylthio)phenyl)thiophen-2-yl)methyl)adamantan-1-amine]	A (key: (A)=31-95%; (B)=0-30%)	B (key: (A)=31-95%; (B)=0-30%)		
C(=C\c1ccccc1)/CNC12CC3CC(CC(C3)C1)C2 [Example 199a, N-cinnamyladamantan-1-amine]	A (key: (A)=31-95%; (B)=0-30%)	B (key: (A)=31-95%; (B)=0-30%)		
COc1ccc2cc(CNC34CC5CC(CC(C5)C3)C4)sc2c1 [Example 185a, N-((6-methoxybenzo[b]thiophen-2-yl)methyl)adamantan-1-amine]	A (key: (A)=31-95%; (B)=0-30%)	B (key: (A)=31-95%; (B)=0-30%)		
c1cc(CNC23CC4CC(CC(C4)C2)C3)ccn1 [Example 73, Adamantan-1-yl-pyridin-4-ylmethyl-amine]			B (key: (A)=31-95%; (B)=0-30%)	B (key: (A)=31-95%; (B)=0-30%)
Oc1ccccc1CNC12CC3CC(CC(C3)C1)C2 [Example 28, 2-(Adamantan-1-ylaminomethyl)-phenol]			B (key: (A)=31-95%; (B)=0-30%)	B (key: (A)=31-95%; (B)=0-30%)
Brc1cccc(CNC23CC4CC(CC(C4)C2)C3)c1 [Example 3a, N-(3-Bromobenzyl)adamantan-1-amine]	B (key: (A)=31-95%; (B)=0-30%)	B (key: (A)=31-95%; (B)=0-30%)		
Oc1cc(O)c(CNC23CC4CC(CC(C4)C2)C3)c(O)c1 [Example 70, 2-(Adamantan-1-ylaminomethyl)-benzene-1,3,5-triol]			B (key: (A)=31-95%; (B)=0-30%)	B (key: (A)=31-95%; (B)=0-30%)
c1cc(-c2nc(CNC34CC5CC(CC(C5)C3)C4)no2)cs1 [Example 143a, N-((5-(thiophen-3-yl)-1,2,4-oxadiazol-3-yl)methyl)adamantan-1-amine]	A (key: (A)=31-95%; (B)=0-30%)	B (key: (A)=31-95%; (B)=0-30%)		
Cc1nc(-c2ccc(CNC34CC5CC(CC(C5)C3)C4)s2)cs1 [Example 156a, N-((5-(2-methylthiazol-4-yl)thiophen-2-yl)methyl)adamantan-1-amine]	A (key: (A)=31-95%; (B)=0-30%)	A (key: (A)=31-95%; (B)=0-30%)		
CS(=O)(=O)c1ccc(CNC23CC4CC(CC(C4)C2)C3)cc1 [Example 25, Adamantan-1-yl-(4-methanesulfonyl-benzyl)-amine]			B (key: (A)=31-95%; (B)=0-30%)	B (key: (A)=31-95%; (B)=0-30%)
CC(C)(C)c1cc(CNC23CC4CC(CC(C4)C2)C3)[nH]n1 [Example 101a, N-((3-(tert-butyl)-1H-pyrazol-5-yl)methyl)adamantan-1-amine]	B (key: (A)=31-95%; (B)=0-30%)	B (key: (A)=31-95%; (B)=0-30%)		
Cc1ncc(-c2ccc(CNC34CC5CC(CC(C5)C3)C4)s2)s1 [Example 154a, N-((5-(2-methylthiazol-5-yl)thiophen-2-yl)methyl)adamantan-1-amine]	A (key: (A)=31-95%; (B)=0-30%)	A (key: (A)=31-95%; (B)=0-30%)		
c1coc(-c2ccc(CNC34CC5CC(CC(C5)C3)C4)cc2)c1 [Example 31a, N-(4-(Furan-2-yl)benzyl)adamantan-1-amine]	A (key: (A)=31-95%; (B)=0-30%)	B (key: (A)=31-95%; (B)=0-30%)		
c1csc(-c2ccc(CNC34CC5CC(CC(C5)C3)C4)cc2)c1 [Example 29a, N-(4-(Thiophen-2-yl)benzyl)adamantan-1-amine methanesulfonate]	A (key: (A)=31-95%; (B)=0-30%)	B (key: (A)=31-95%; (B)=0-30%)		
c1ccc(-c2nnc(CNC34CC5CC(CC(C5)C3)C4)o2)cc1 [Example 115a, N-((5-phenyl-1,3,4-oxadiazol-2-yl)methyl)adamantan-1-amine]	A (key: (A)=31-95%; (B)=0-30%)	B (key: (A)=31-95%; (B)=0-30%)		
c1csc(CNC23CC4CC(CC(C4)C2)C3)n1 [Example 71a, Adamantan-1-yl-thiazol-2-ylmethyl-amine]	A (key: (A)=31-95%; (B)=0-30%)	B (key: (A)=31-95%; (B)=0-30%)		
Oc1ccc(CNC2C3CC4CC(C3)CC2C4)cc1O (stereo not drawn) [Example 101, 4-(Adamantan-2-ylaminomethyl)-benzene-1,2-diol]			B (key: (A)=31-95%; (B)=0-30%)	B (key: (A)=31-95%; (B)=0-30%)

SMILES	S31N OOcyte Inhibition at 100 uM (%) [1]	V27A OOcyte Inhibition at 100 uM (%) [2]	S31N OOcyte Inhibition at 100 uM (%) ([1]; pH 5.5)	V27A OOcyte Inhibition at 100 uM (%) ([2]; pH 5.5)
FC(F)(F)Sc1ccc(CNC23CC4CC(CC(C4)C2)C3)cc1 [Example 26, Adamantan-1-yl-(4-trifluoromethylsulfanyl-benzyl)-amine]			A (key: (A)=31-95%; (B)=0-30%)	B (key: (A)=31-95%; (B)=0-30%)
Oc1ccc(CNC2C3CC4CC(C3)CC2C4)c(O)c1 (stereo not drawn) [Example 100, 4-(Adamantan-2-ylaminomethyl)-benzene-1,3-diol]			B (key: (A)=31-95%; (B)=0-30%)	A (key: (A)=31-95%; (B)=0-30%)
c1ccc(CNC23CC4CC(CC(C4)C2)C3)cc1 [Example 8, Adamantan-1-yl-benzyl-amine]			B (key: (A)=31-95%; (B)=0-30%)	B (key: (A)=31-95%; (B)=0-30%)
CC(NC1C2CC3CC(C2)CC1C3)c1ccc(O)cc1O (stereo not drawn) [Example 102, 4-[1-(Adamantan-2-ylamino)-ethyl]-benzene-1,3-diol]			B (key: (A)=31-95%; (B)=0-30%)	A (key: (A)=31-95%; (B)=0-30%)
Brc1ccc(CNC23CC4CC(CC(C4)C2)C3)cc1 [Example 41, N-(4-Bromobenzyl)adamantan-1-amine]			A (key: (A)=31-95%; (B)=0-30%)	B (key: (A)=31-95%; (B)=0-30%)
COc1ccc2cc(CNC34CC5CC(CC(C5)C3)C4)[nH]c2c1 [Example 186a, N-((6-methoxy-1H-indol-2-yl)methyl)adamantan-1-amine]	A (key: (A)=31-95%; (B)=0-30%)	B (key: (A)=31-95%; (B)=0-30%)		
COc1cc(Cl)sc1CNC12CC3CC(CC(C3)C1)C2 [Example 80a]	B (key: (A)=31-95%; (B)=0-30%)	B (key: (A)=31-95%; (B)=0-30%)		
Brc1ccc(-c2ccc(CNC34CC5CC(CC(C5)C3)C4)s2)s1 [Example 159a, N-((5′-bromo-[2,2′-bithiophen]-5-yl)methyl)adamantan-1-amine]	A (key: (A)=31-95%; (B)=0-30%)	B (key: (A)=31-95%; (B)=0-30%)		
Oc1cc(-c2cc3ccccc3o2)ccc1CNC12CC3CC(CC(C3)C1)C2 [Example 48a]	B (key: (A)=31-95%; (B)=0-30%)	B (key: (A)=31-95%; (B)=0-30%)		
F[B-](F)(F)c1ccc(CNC23CC4CC(CC(C4)C2)C3)cc1.[K+] [Example 2a]	B (key: (A)=31-95%; (B)=0-30%)	A (key: (A)=31-95%; (B)=0-30%)		
CSc1ccc(CNC23CC4CC(CC(C4)C2)C3)cc1 [Example 23, Adamantan-1-yl-(4-methylsulfanyl-benzyl)-amine]			A (key: (A)=31-95%; (B)=0-30%)	B (key: (A)=31-95%; (B)=0-30%)
Cc1ccc(-c2ccc(CNC34CC5CC(CC(C5)C3)C4)s2)s1 [Example 141a, N-((5′-methyl-[2,2′-bithiophen]-5-yl)methyl)adamantan-1-amine]	A (key: (A)=31-95%; (B)=0-30%)	B (key: (A)=31-95%; (B)=0-30%)		
COc1ccc(C(C)NC23CC4CC(CC(C4)C2)C3)cc1 (stereo not drawn) [Example 11a, N-(1-(4-methoxyphenyl)ethyl)adamantan-1-amine]	A (key: (A)=31-95%; (B)=0-30%)	A (key: (A)=31-95%; (B)=0-30%)		
Oc1c(CNC23CC4CC(CC(C4)C2)C3)ccc2ccccc12 [Example 53a, 2-(Adamantan-1-ylaminomethyl)-naphthalen-1-ol]	A (key: (A)=31-95%; (B)=0-30%)	B (key: (A)=31-95%; (B)=0-30%)		
N=C(Nc1ccc(O)cc1)C12CC3CC(CC(C3)C1)C2 [Example 5]			B (key: (A)=31-95%; (B)=0-30%)	B (key: (A)=31-95%; (B)=0-30%)
C[Si](C)(C)CCCNCc1ccc(O)cc1O [Example 113, 4-[(3-Trimethylsilanyl-propylamino)-methyl]-benzene-1,3-diol]			B (key: (A)=31-95%; (B)=0-30%)	B (key: (A)=31-95%; (B)=0-30%)
c1csc(-c2ncc(CNC34CC5CC(CC(C5)C3)C4)s2)c1 [Example 144a, N-((2-(thiophen-2-yl)thiazol-5-yl)methyl)adamantan-1-amine]	A (key: (A)=31-95%; (B)=0-30%)	B (key: (A)=31-95%; (B)=0-30%)		
COc1ccc(CNC23CC4CC(CC(C4)C2)C3)s1 [Example 75a, N-((5-methoxythiophen-2-yl)methyl)adamantan-1-amine]	A (key: (A)=31-95%; (B)=0-30%)	B (key: (A)=31-95%; (B)=0-30%)		
